Converted amounts (≈) assume the structure as drawn.
Tests used:
Format in all cases: in vivo
[1] = test system: Black Bean Aphid [Aphis fabae (Scop.)]; test: Direct Spray Assay on Black Bean Aphid; details: direct spray on nasturtium plants; mortality after 7 days
Experimental: Nasturtium plants (Tropaeolum sp.), approximately 5 cm tall, are transplanted into sandy loam soil in 3-inch clay pots and infested with 25-50 black bean aphids of mixed ages. Twenty-four hours later they are sprayed, to the point of runoff, with 50--50 acetone-water solutions of the test chemicals. Treated plants are held in the greenhouse and mortality is recorded after 7 days. Test concentrations range from 0.05% down to that at which 50% mortality occurs.

[2] = test system: Black Bean Aphid [Aphis fabae (Scop.)]; test: Systemic Assay on Black Bean Aphid; details: 168 h, systemic, chemical in soil, mortality after 7 days, read-out: Insecticide Activity - Approximate LD50, BAS (Black Bean Aphid - systemic)
Experimental: Test chemicals are diluted in acetone and aliquots are thoroughly mixed into 500 grams of dry, sandy loam soil. The treated soil is placed in a pint ice cream carton and a nasturtium plant (Tropaeolum sp.) approximately 5 cm tall is transplanted into each carton. The plants are then infested with approximately 25 black bean aphids of mixed ages and placed in the greenhouse. Seven days later mortality is recorded. Test concentrations range from 10 PPM down to that at which approximately 50% mortality occurs.

[3] = test system: Lygus Bug [Lygus hesperus (Knight)]; test: Lygus Bug spray; details: spray on adult bugs; mortality after 48 hours
Experimental: Test compounds are in a 50--50 acetone-water solution. Two cc of the solutions are sprayed through a Devilbiss type EGA hand spray gun into circular cardboard cages containing one string bean pod and ten adult lygus bugs. The test cages are covered on the bottom with cellophane and the top with tulle netting. Percent mortality is recorded 48 hours later. Test concentrations range from 0.05% down to that at which approximately 50% mortality occurs.

[4] = test system: Tobacco Budworm [Heliothis virescens (F.)]; test: Tobacco Budworm on dipped Romaine lettuce leaves; details: larvae, Romaine lettuce leaf dip; 48 hours plus 5 days
Experimental: (§1) Test compounds are diluted in a 50--50 acetone-water solution. Cotyledons of hyzini squash (Calabacita abobrinha), approximately 1 × 1.5 inches, are immersed in the test solutions for 2-3 seconds and placed on a wire screen to dry. The dried leaves are placed in petri dishes containing a moistened piece of filter paper and infested with five second-instar cabbage looper larvae. Mortality of the larvae is recorded 48 hours later, and a piece of synthetic media is added to dishes containing survivors. These are then held for 5 additional days to observe for any delayed effects of the test chemicals. Test concentrations range from 0.1% down to that at which approximately 50% mortality occurs.
The procedure is the same as that used for the cabbage looper, except that sections of Romaine lettuce (Latica sativa) leaves were used instead of cotyledons of hyzini squash.

[5] = test system: housefly (Musca domestica L.); test: Housefly mortality, residue on aluminum dishes; details: 25 3-day old female houseflies; mortality after 48 hours
Experimental: Test compounds are diluted in acetone and aliquots are pipetted onto the bottom of 55 × 15 mm aluminum dishes. To insure even spreading of the chemical on the bottom of the dishes, 1 ml of acetone containing 0.02% peanut oil is also added to each dish. After all solvents have evaporated the dishes are placed in circular cardboard cages containing 25 3-day old female houseflies. The cages are covered on the bottom with cellophane and the top with tulle netting, and each contains a sugar-water saturated cotton plug for maintenance of the flies. Mortality is recorded after 48 hours. Test levels range from 100 μg/25 F. houseflies down to that at which approximately 50% mortality occurs.

[6] = test system: German Cockroach [Blattella germanica (Linne)]; test: German Cockroach spray; details: spray on 1-month-old nymphs; mortality after 7 days
Experimental: Test compounds are diluted in a 50--50 acetone-water solution. Two cc of the solutions are sprayed through a DeVilbiss type EGA hand spray gun into circular cardboard cages containing 10 l-month-old German cockroach nymphs. The test cages are covered on the bottom with cellophane and the top with tulle netting. Percent mortality is recorded 7 days later. Test concentrations range from 0.1% down to that at which approximately 50% mortality occurs.

[7] = test system: Cabbage Looper [Trichoplusia ni (Hubner)]; test: Cabbage Looper on dipped squash cotyledons; details: second-instar larvae, cotyledon dip; 48 hours plus 5 days
Experimental: as §1

[8] = test system: Southern House Mosquito [Culex pipiens quinquefasciatus (Say)]; test: Southern House Mosquito larvae in aqueous solution; details: 48 h, read-out: Insecticide Activity - Approximate LD50, MOS (Southern House Mosquito)
Experimental: Insecticidal activity is determined using third-instar larvae of the mosquito (Culex pipiens quinquefasciatus). Ten larvae are placed in a 6-ounce, number 67 Dixie wax paper cup containing 100 ml of an aqueous solution of the test chemical. The treated larvae are stored at 70°F, and 48 hours later the mortality is recorded. Test concentrations range from 0.5 PPM down to that at which approximately 50% mortality occurs.

[9] = test system: Green Peach Aphid [Myzus persicae (Sulzer)]; test: Green Peach Aphid spray on radish plants; details: sprayed to runoff on radish plants; mortality after 48 hours
Experimental: Radish plants (Rhaphanus sativus), approximately 2 cm tall, are transplanted into sandy loam soil in 3-inch clay pots and infested with 25-50 green peach aphids of mixed ages. Twenty-four hours later they are sprayed, to the point of runoff, with 50--50 acetone-water solutions of the test chemicals. Treated plants are held in the greenhouse and mortality is recorded after 48 hours. Test concentrations range from 0.05% down to that at which 50% mortality occurs.

SMILES: CCOP(=S)(OCC)SCC(=O)N=C(OC)N(CC)c1cccc(C)c1 [Compound 18]
- Insecticide Activity - Approximate LD50, BA (Black Bean Aphid - direct spray) [1]: .0005%
- LC50 [2]: 5 mg/L (≈ 11.9 µM)
- Insecticide Activity - Approximate LD50, LB (Lygus Bug) [3]: > .05%
- Insecticide Activity - Approximate LD50, TBW (Tobacco Budworm) [4]: .1%
- Insecticide Activity - Approximate LD50, HF (Housefly) [5]: 22 μg/25 F.
- Insecticide Activity - Approximate LD50, GR (German Cockroach) [6]: .1%
- Insecticide Activity - Approximate LD50, CL (Cabbage Looper) [7]: > .1%
- LC50 [8]: > 1 mg/L
- Insecticide Activity - Approximate LD50, GPA (Green Peach Aphid) [9]: .005%

Reference: patent US3984410A, “Isourea acetylphosphate insecticides” (priority 1975, dated 1976)
